# Measurements as given in PubChem BioAssay (NCI).
#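 GI50: concentration for 50% inhibition of growth. TGI denotes the concentration required for complete inhibition of growth.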
# How the values were obtained:
# Assay in all cases: NCI-60 cell line screen, 384-well format
# [1] = tested on: HOP-92 NSCLC
# [2] = tested on: OVCAR-4 ovarian
# [3] = tested on: MALME-3M melanoma
# [4] = tested on: NCI-H460 NSCLC
# [5] = tested on: SK-OV-3 ovarian
# [6] = tested on: U251 glioblastoma
# [7] = tested on: OVCAR-3 ovarian
# [8] = tested on: MCF7 breast
# [9] = tested on: COLO 205 colon
# [10] = tested on: SF-539 CNS
# [11] = tested on: CAKI-1 renal
# [12] = tested on: SN12C renal
# [13] = tested on: 786-0 renal
# [14] = tested on: OVCAR-5 ovarian
# [15] = tested on: M14 melanoma
# [16] = tested on: ACHN renal
# [17] = tested on: UACC-257 melanoma
# [18] = tested on: PC-3 prostate
# [19] = tested on: DU-145 prostate
# [20] = tested on: MOLT-4 leukemia
# [21] = tested on: HL-60(TB) leukemia
# [22] = tested on: SNB-19 CNS
# [23] = tested on: RPMI-8226 leukemia
# [24] = tested on: SK-MEL-5 melanoma
# [25] = tested on: IGROV1 ovarian
# [26] = tested on: HCT-116 colon
# [27] = tested on: NCI-H226 lung
# [28] = tested on: UACC-62 melanoma
# [29] = tested on: HT29 colon
# [30] = tested on: HCC-2998 colon
# [31] = tested on: OVCAR-8 ovarian
# [32] = tested on: MDA-MB-231 breast
# [33] = tested on: HS 578T breast
# [34] = tested on: NCI-H23 lung
# [35] = tested on: HCT-15 colon
# [36] = tested on: A498 renal
# [37] = tested on: SF-295 CNS
# [38] = tested on: NCI/ADR-RES ovarian
# [39] = tested on: T-47D breast
# [40] = tested on: SW-620 colon
# [41] = tested on: K-562 leukemia
# [42] = tested on: NCI-H522 lung
# [43] = tested on: SNB-75 CNS
# [44] = tested on: SK-MEL-28 melanoma
# [45] = tested on: EKVX NSCLC
# [46] = tested on: CCRF-CEM leukemia
# [47] = tested on: RXF 393 renal
# [48] = tested on: HOP-62 NSCLC
# [49] = tested on: TK-10 renal
# [50] = tested on: MDA-MB-435 melanoma
# [51] = tested on: UO-31 renal
# [52] = tested on: MDA-MB-468 breast
# [53] = tested on: KM12 colon
# [54] = tested on: NCI-H322M lung
# [55] = tested on: SF-268 CNS
# [56] = tested on: BT-549 breast
# [57] = tested on: LOX IMVI melanoma
# [58] = tested on: A549 NSCLC
# [59] = tested on: SR leukemia
compound,measurement,setting,value
N#Cc1c(Oc2ccc(F)c(NC(=O)Cc3cccc(C(F)(F)F)c3)c2)ccc2nc(NC(=O)C3CC3)sc12,GI50,[1],783 nM
same,TGI,[1],2250 nM
same,GI50,[2],3640 nM
same,TGI,[2],> 100000 nM
same,TGI,[3],30.9 nM
same,GI50,[4],745 nM
same,TGI,[4],> 100000 nM
same,GI50,[5],1790 nM
same,TGI,[5],> 100000 nM
same,GI50,[6],486 nM
same,TGI,[6],8260 nM
same,GI50,[7],2410 nM
same,TGI,[7],82100 nM
same,GI50,[8],717 nM
same,TGI,[8],> 100000 nM
same,GI50,[9],31.1 nM
same,TGI,[9],2640 nM
same,GI50,[10],1070 nM
same,TGI,[10],3060 nM
same,GI50,[11],1140 nM
same,TGI,[11],8630 nM
same,GI50,[12],461 nM
same,TGI,[12],4710 nM
same,GI50,[13],913 nM
same,TGI,[13],7150 nM
same,GI50,[14],677 nM
same,TGI,[14],9850 nM
same,GI50,[15],12.5 nM
same,TGI,[15],117 nM
same,GI50,[16],755 nM
same,TGI,[16],> 100000 nM
same,GI50,[17],26.6 nM
same,TGI,[17],138 nM
same,GI50,[18],1420 nM
same,TGI,[18],> 100000 nM
same,GI50,[19],2770 nM
same,TGI,[19],> 100000 nM
same,GI50,[20],97.5 nM
same,TGI,[20],238 nM
same,GI50,[21],80.5 nM
same,TGI,[21],914 nM
same,GI50,[22],2630 nM
same,TGI,[22],> 100000 nM
same,GI50,[23],198 nM
same,TGI,[23],847 nM
same,GI50,[24],17.1 nM
same,TGI,[24],1680 nM
same,GI50,[25],434 nM
same,TGI,[25],3110 nM
same,GI50,[26],158 nM
same,TGI,[26],1850 nM
same,GI50,[27],312 nM
same,TGI,[27],4190 nM
same,GI50,[28],15.2 nM
same,TGI,[28],106 nM
same,GI50,[29],64.2 nM
same,TGI,[29],> 100000 nM
same,GI50,[30],291 nM
same,TGI,[30],7010 nM
same,GI50,[31],746 nM
same,TGI,[31],> 100000 nM
same,GI50,[32],78.3 nM
same,TGI,[32],2520 nM
same,GI50,[33],698 nM
same,TGI,[33],2520 nM
same,GI50,[34],98.9 nM
same,TGI,[34],1260 nM
same,GI50,[35],401 nM
same,TGI,[35],> 100000 nM
same,GI50,[36],1700 nM
same,TGI,[36],5200 nM
same,GI50,[37],516 nM
same,TGI,[37],> 100000 nM
same,GI50,[38],1030 nM
same,TGI,[38],4650 nM
same,GI50,[39],1200 nM
same,TGI,[39],6700 nM
same,GI50,[40],470 nM
same,TGI,[40],8510 nM
same,GI50,[41],114 nM
same,TGI,[41],300 nM
same,GI50,[42],484 nM
same,TGI,[42],5650 nM
same,GI50,[43],1300 nM
same,TGI,[43],4360 nM
same,GI50,[44],16.7 nM
same,TGI,[44],68 nM
same,GI50,[45],3800 nM
same,TGI,[45],35600 nM
same,GI50,[46],263 nM
same,TGI,[46],2970 nM
same,GI50,[47],159 nM
same,TGI,[47],1600 nM
same,GI50,[48],1700 nM
same,TGI,[48],> 100000 nM
same,GI50,[49],311 nM
same,TGI,[49],3520 nM
same,GI50,[50],62.2 nM
same,TGI,[50],> 100000 nM
same,GI50,[51],427 nM
same,TGI,[51],2220 nM
same,GI50,[52],1060 nM
same,TGI,[52],6560 nM
same,GI50,[53],1210 nM
same,TGI,[53],> 100000 nM
same,GI50,[54],1330 nM
same,TGI,[54],> 100000 nM
same,GI50,[55],39.5 nM
same,TGI,[55],263 nM
same,GI50,[56],1320 nM
same,TGI,[56],> 100000 nM
same,GI50,[57],41.8 nM
same,TGI,[57],992 nM
same,GI50,[58],1870 nM
same,TGI,[58],> 100000 nM
O=C(CC1(O)C(=O)Nc2c(Cl)ccc(Cl)c21)c1ccc(C2CC2)cc1 (centres undefined),GI50,[1],210 nM
same,TGI,[1],11000 nM
same,GI50,[2],369 nM
same,TGI,[2],7590 nM
same,GI50,[3],61.5 nM
same,TGI,[3],10300 nM
same,GI50,[4],225 nM
same,TGI,[4],611 nM
same,GI50,[5],238 nM
same,TGI,[5],14100 nM
same,GI50,[7],73.1 nM
same,TGI,[7],286 nM
same,GI50,[8],111 nM
same,TGI,[8],13500 nM
same,GI50,[9],124 nM
same,TGI,[9],448 nM
same,GI50,[10],206 nM
same,TGI,[10],907 nM
same,GI50,[11],173 nM
same,TGI,[11],15200 nM
same,GI50,[12],575 nM
same,TGI,[12],20100 nM
same,GI50,[13],377 nM
same,TGI,[13],12000 nM
same,GI50,[14],900 nM
same,TGI,[14],17700 nM
same,GI50,[15],54 nM
same,TGI,[15],266 nM
same,GI50,[16],743 nM
same,TGI,[16],17200 nM
same,GI50,[17],280 nM
same,TGI,[17],2340 nM
same,GI50,[18],372 nM
same,TGI,[18],14400 nM
same,GI50,[19],338 nM
same,TGI,[19],2490 nM
same,GI50,[20],47.3 nM
same,TGI,[20],135 nM
same,GI50,[21],37.7 nM
same,TGI,[21],120 nM
same,GI50,[22],528 nM
same,TGI,[22],15300 nM
same,GI50,[23],133 nM
same,TGI,[23],271 nM
same,GI50,[24],142 nM
same,TGI,[24],414 nM
same,GI50,[25],882 nM
same,TGI,[25],17000 nM
same,GI50,[59],16.9 nM
same,TGI,[59],33.7 nM
same,GI50,[27],732 nM
same,TGI,[27],14200 nM
same,GI50,[28],38.9 nM
same,TGI,[28],5040 nM
same,GI50,[29],50.5 nM
same,TGI,[29],248 nM
same,GI50,[30],277 nM
same,TGI,[30],4610 nM
same,GI50,[31],257 nM
same,TGI,[31],1230 nM
same,GI50,[32],182 nM
same,TGI,[32],16300 nM
same,GI50,[33],119 nM
same,TGI,[33],284 nM
same,GI50,[34],192 nM
same,TGI,[34],759 nM
same,GI50,[35],51.9 nM
same,TGI,[35],2060 nM
same,GI50,[36],226 nM
same,TGI,[36],10700 nM
same,GI50,[37],112 nM
same,TGI,[37],853 nM
same,GI50,[38],69.2 nM
same,TGI,[38],276 nM
same,GI50,[39],323 nM
same,TGI,[39],18200 nM
same,GI50,[40],45.7 nM
same,TGI,[40],15500 nM
same,GI50,[41],46.2 nM
same,TGI,[41],211 nM
same,GI50,[42],45.1 nM
same,TGI,[42],179 nM
same,GI50,[43],96.7 nM
same,TGI,[43],3170 nM
same,GI50,[44],221 nM
same,TGI,[44],18900 nM
same,GI50,[45],385 nM
same,TGI,[45],16900 nM
same,GI50,[46],130 nM
same,TGI,[46],262 nM
same,GI50,[47],155 nM
same,TGI,[47],793 nM
same,GI50,[48],199 nM
same,TGI,[48],13400 nM
same,GI50,[49],10400 nM
same,TGI,[49],25200 nM
same,GI50,[50],24.5 nM
same,TGI,[50],59.6 nM
same,GI50,[51],10600 nM
same,TGI,[51],23000 nM
same,GI50,[52],30.2 nM
same,TGI,[52],94.4 nM
same,GI50,[53],74.7 nM
same,TGI,[53],2770 nM
same,GI50,[54],845 nM
same,TGI,[54],18000 nM
same,GI50,[55],387 nM
same,TGI,[55],11200 nM
same,GI50,[56],49 nM
same,TGI,[56],2730 nM
same,GI50,[57],434 nM
same,TGI,[57],4650 nM
same,GI50,[58],546 nM
same,TGI,[58],13800 nM
